Assay results from patent US10894784B2, “Heteroarylbenzimidazole compounds” (BAYER PHARMA AKTIENGESELLSCHAFT, priority 2015, dated 2021).

What follows are compounds tested against TBK1 (Homo sapiens (Human), UniProt Q9UHD2) (assay: TBK1 low ATP kinase assay (in vitro assay 1)). Conditions: in vitro assay 1, read-out: TBK1 low ATP kinase assay IC50.
Sequence of TBK1 (Q9UHD2 whole entry): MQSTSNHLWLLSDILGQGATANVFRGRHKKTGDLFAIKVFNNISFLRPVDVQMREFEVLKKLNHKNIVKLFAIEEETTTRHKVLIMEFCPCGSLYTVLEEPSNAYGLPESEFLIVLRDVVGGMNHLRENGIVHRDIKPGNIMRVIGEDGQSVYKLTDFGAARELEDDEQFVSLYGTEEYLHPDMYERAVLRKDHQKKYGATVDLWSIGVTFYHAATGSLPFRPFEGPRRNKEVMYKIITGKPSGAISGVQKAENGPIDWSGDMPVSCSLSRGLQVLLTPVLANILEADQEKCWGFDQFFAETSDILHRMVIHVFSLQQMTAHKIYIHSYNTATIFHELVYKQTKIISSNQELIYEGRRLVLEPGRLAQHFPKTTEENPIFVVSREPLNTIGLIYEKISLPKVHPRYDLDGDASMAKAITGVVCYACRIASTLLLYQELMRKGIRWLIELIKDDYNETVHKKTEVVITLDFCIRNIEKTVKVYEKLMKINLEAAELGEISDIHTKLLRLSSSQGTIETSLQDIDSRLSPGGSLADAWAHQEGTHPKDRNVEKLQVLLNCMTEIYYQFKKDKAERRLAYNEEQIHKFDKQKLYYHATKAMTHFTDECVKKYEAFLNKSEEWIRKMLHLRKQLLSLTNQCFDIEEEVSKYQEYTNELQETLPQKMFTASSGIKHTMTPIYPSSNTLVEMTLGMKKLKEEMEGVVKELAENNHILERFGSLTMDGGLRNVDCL
Assay type: biochemical
Cn1ccc(-c2ccc3nc(Nc4cc(CN5CCN(C(=O)CC(F)(F)F)CC5)ccn4)[nH]c3c2)n1 [Example 40.01, 3,3,3-trifluoro-1-{4-[(2-{[6-(1-methyl-1H-pyrazol-3-yl)-1H-benzimidazol-2-yl]amino}pyridin-4-yl)methyl]piperazin-1-yl}propan-1-one] gave an IC50 of 1130 nM. Cn1ccc(-c2ccc3nc(Nc4cc(CN5CCN(C(=O)CC6CC6)CC5)ccn4)[nH]c3c2)n1 [Example 40.02, 2-cyclopropyl-1-{4-[(2-{[6-(1-methyl-1H-pyrazol-3-yl)-1H-benzimidazol-2-yl]amino}pyridin-4-yl)methyl]piperazin-1-yl}ethanone] gave an IC50 of 1270 nM. Cn1ccc(-c2ccc3nc(Nc4cc(CN5CCN(C(=O)C6CC6)CC5)ccn4)[nH]c3c2)n1 [Example 40.03, cyclopropyl{4-[(2-{[6-(1-methyl-1H-pyrazol-3-yl)-1H-benzimidazol-2-yl]amino}pyridin-4-yl)methyl]piperazin-1-yl}methanone] showed an IC50 of 988 nM. Cn1ccc(-c2ccc3nc(Nc4cc(CN5CCN(C(=O)C6CCC6)CC5)ccn4)[nH]c3c2)n1 [Example 40.04, cyclobutyl{4-[(2-{[6-(1-methyl-1H-pyrazol-3-yl)-1H-benzimidazol-2-yl]amino}pyridin-4-yl)methyl]piperazin-1-yl}methanone] showed an IC50 of 1390 nM. Cn1ncnc1-c1ccc2nc(Nc3cc(CN4CCN(C(=O)CC(F)(F)F)CC4)ccn3)[nH]c2c1 [Example 41.02, 3,3,3-trifluoro-1-{4-[(2-{[6-(1-methyl-1H-1,2,4-triazol-5-yl)-1H-benzimidazol-2-yl]amino}pyridin-4-yl)methyl]piperazin-1-yl}propan-1-one] showed an IC50 of 681 nM. Compound Cn1ncnc1-c1ccc2nc(Nc3cc(CN4CCN(C(=O)C5CC5)CC4)ccn3)[nH]c2c1 [Example 41.03, cyclopropyl{4-[(2-{[6-(1-methyl-1H-1,2,4-triazol-5-yl)-1H-benzimidazol-2-yl]amino}pyridin-4-yl)methyl]piperazin-1-yl}methanone] has an IC50 of 770 nM. Compound CC(C)Cc1nc(-c2ccc3nc(Nc4cc(CN5CCN(C(=O)OC(C)(C)C)CC5)ccn4)[nH]c3c2)n(C)n1 [Example 42.01, tert-butyl 4-{[2-({6-[1-methyl-3-(2-methylpropyl)-1H-1,2,4-triazol-5-yl]-1H-benzimidazol-2-yl}amino)pyridin-4-yl]methyl}piperazine-1-carboxylate] has an IC50 of 577 nM. CC(C)Cc1nc(-c2ccc3nc(Nc4cc(CN5CCN(C(=O)CC(F)(F)F)CC5)ccn4)[nH]c3c2)n(C)n1 [Example 42.02, 3,3,3-trifluoro-1-(4-{[2-({6-[1-methyl-3-(2-methylpropyl)-1H-1,2,4-triazol-5-yl]-1H-benzimidazol-2-yl}amino)pyridin-4-yl]methyl}piperazin-1-yl)propan-1-one] gave an IC50 of 397 nM. O=C(C1CC1)N1CCN(Cc2ccnc(Nc3nc4ccc(-c5ncc[nH]5)cc4[nH]3)c2)CC1 [Example 43.01, cyclopropyl{4-[(2-{[6-(1H-imidazol-2-yl)-1H-benzimidazol-2-yl]amino}pyridin-4-yl)methyl]piperazin-1-yl}methanone] showed an IC50 of 262 nM. Work on Cc1c[nH]c(-c2ccc3nc(Nc4cc(CN5CCN(C(=O)C6CC6)CC5)ccn4)[nH]c3c2)n1 [Example 43.02, cyclopropyl{4-[(2-{[6-(4-methyl-1H-imidazol-2-yl)-1H-benzimidazol-2-yl]amino}pyridin-4-yl)methyl]piperazin-1-yl}methanone] yielded an IC50 of 1840 nM. For O=C(C1CC1)N1CCN(Cc2ccnc(Nc3nc4ccc(-c5nc(C6CC6)c[nH]5)cc4[nH]3)c2)CC1 [Example 43.03, cyclopropyl{4-[(2-{[6-(4-cyclopropyl-1H-imidazol-2-yl)-1H-benzimidazol-2-yl]amino}pyridin-4-yl)methyl]piperazin-1-yl}methanone], the IC50 was 696 nM. Compound O=C(CC(F)(F)F)N1CCN(Cc2ccnc(Nc3nc4ccc(-c5ccn(CC6CC6)c(=O)c5)cc4[nH]3)c2)CC1 [Example 44.01, 1-(cyclopropylmethyl)-4-{2-[(4-{[4-(3,3,3-trifluoropropanoyl)piperazin-1-yl]methyl}pyridin-2-yl)amino]-1H-benzimidazol-6-yl}pyridin-2(1H)-one] has an IC50 of 94 nM. With O=C(C1CC1)N1CCN(Cc2ccnc(Nc3nc4ccc(-c5ccn(CC6CC6)c(=O)c5)cc4[nH]3)c2)CC1 [Example 44.02, 4-{2-[(4-{[4-(cyclopropylcarbonyl)piperazin-1-yl]methyl}pyridin-2-yl)amino]-1H-benzimidazol-6-yl}-1-(cyclopropylmethyl)pyridin-2(1H)-one] the IC50 was 66.8 nM. Compound O=C(C1CCC1)N1CCN(Cc2ccnc(Nc3nc4ccc(-c5ccn(CC6CC6)c(=O)c5)cc4[nH]3)c2)CC1 [Example 44.03, 4-{2-[(4-{[4-(cyclobutylcarbonyl)piperazin-1-yl]methyl}pyridin-2-yl)amino]-1H-benzimidazol-6-yl}-1-(cyclopropylmethyl)pyridin-2(1H)-one] has an IC50 of 85.8 nM. With O=C(CC(F)(F)F)N1CCN(Cc2ccnc(Nc3nc4ccc(-c5cncnc5)cc4[nH]3)c2)CC1 [Example 45.01.01, 3,3,3-trifluoro-1-{4-[(2-{[6-(pyrimidin-5-yl)-1H-benzimidazol-2-yl]amino}pyridin-4-yl)methyl]piperazin-1-yl}propan-1-one] the IC50 was 323 nM. O=C(CC1CC1)N1CCN(Cc2ccnc(Nc3nc4ccc(-c5cncnc5)cc4[nH]3)c2)CC1 [Example 45.01.02, 2-cyclopropyl-1-{4-[(2-{[6-(pyrimidin-5-yl)-1H-benzimidazol-2-yl]amino}pyridin-4-yl)methyl]piperazin-1-yl}ethanone] gave an IC50 of 397 nM. O=C(C1CC1)N1CCN(Cc2ccnc(Nc3nc4ccc(-c5cncnc5)cc4[nH]3)c2)CC1 [Example 45.01.03, cyclopropyl{4-[(2-{[6-(pyrimidin-5-yl)-1H-benzimidazol-2-yl]amino}pyridin-4-yl)methyl]piperazin-1-yl}methanone] was tested, and the IC50 was 205 nM. For O=C(CC(F)(F)F)N1CCN(Cc2ccnc(Nc3nc4ccc(-c5cnc(Cl)nc5)cc4[nH]3)c2)CC1 [Example 45.02.01, 1-{4-[(2-{[6-(2-chloropyrimidin-5-yl)-1H-benzimidazol-2-yl]amino}pyridin-4-yl)methyl]piperazin-1-yl}-3,3,3-trifluoropropan-1-one], the IC50 was 124 nM. For O=C(C1CC1)N1CCN(Cc2ccnc(Nc3nc4ccc(-c5cnc(Cl)nc5)cc4[nH]3)c2)CC1 [Example 45.02.02, {4-[(2-{[6-(2-chloropyrimidin-5-yl)-1H-benzimidazol-2-yl]amino}pyridin-4-yl)methyl]piperazin-1-yl}(cyclopropyl)methanone], the IC50 was 380 nM. Cc1ncc(-c2ccc3nc(Nc4cc(CN5CCN(C(=O)CC(F)(F)F)CC5)ccn4)[nH]c3c2)cn1 [Example 45.03.01, 3,3,3-trifluoro-1-{4-[(2-{[6-(2-methylpyrimidin-5-yl)-1H-benzimidazol-2-yl]amino}pyridin-4-yl)methyl]piperazin-1-yl}propan-1-one] gave an IC50 of 3790 nM. Cc1ncc(-c2ccc3nc(Nc4cc(CN5CCN(C(=O)C6CC6)CC5)ccn4)[nH]c3c2)cn1 [Example 45.03.02, cyclopropyl{4-[(2-{[6-(2-methylpyrimidin-5-yl)-1H-benzimidazol-2-yl]amino}pyridin-4-yl)methyl]piperazin-1-yl}methanone] gave an IC50 of 1330 nM. In the case of O=C(C1CC1)N1CCN(Cc2ccnc(Nc3nc4ccc(-c5cnc(C6CC6)nc5)cc4[nH]3)c2)CC1 [Example 45.04.01, cyclopropyl{4-[(2-{[6-(2-cyclopropylpyrimidin-5-yl)-1H-benzimidazol-2-yl]amino}pyridin-4-yl)methyl]piperazin-1-yl}methanone], the IC50 is reported as 2240 nM. With CSc1ncc(-c2ccc3nc(Nc4cc(CN5CCN(C(=O)CC(F)(F)F)CC5)ccn4)[nH]c3c2)cn1 [Example 45.05.01, 3,3,3-trifluoro-1-(4-{[2-({6-[2-(methylsulfanyl)pyrimidin-5-yl]-1H-benzimidazol-2-yl}amino)pyridin-4-yl]methyl}piperazin-1-yl)propan-1-one] the IC50 was 1430 nM. CSc1ncc(-c2ccc3nc(Nc4cc(CN5CCN(C(=O)CC6CC6)CC5)ccn4)[nH]c3c2)cn1 [Example 45.05.02, 2-cyclopropyl-1-(4-{[2-({6-[2-(methylsulfanyl)pyrimidin-5-yl]-1H-benzimidazol-2-yl}amino)pyridin-4-yl]methyl}piperazin-1-yl)ethanone] showed an IC50 of 1020 nM. Work on CSc1ncc(-c2ccc3nc(Nc4cc(CN5CCN(C(=O)C6CC6)CC5)ccn4)[nH]c3c2)cn1 [Example 45.05.03, cyclopropyl(4-{[2-({6-[2-(methylsulfanyl)pyrimidin-5-yl]-1H-benzimidazol-2-yl}amino)pyridin-4-yl]methyl}piperazin-1-yl)methanone] yielded an IC50 of 840 nM. COc1nnccc1-c1ccc2nc(Nc3cc(CN4CCN(C(=O)C5CC5)CC4)ccn3)[nH]c2c1 [Example 46.01, cyclopropyl{4-[(2-{[6-(3-methoxypyridazin-4-yl)-1H-benzimidazol-2-yl]amino}pyridin-4-yl)methyl]piperazin-1-yl}methanone] was tested, and the IC50 was 32.5 nM. COc1nnc(Cl)cc1-c1ccc2nc(Nc3cc(CN4CCN(C(=O)C5CC5)CC4)ccn3)[nH]c2c1 [Example 46.02, {4-[(2-{[6-(6-chloro-3-methoxypyridazin-4-yl)-1H-benzimidazol-2-yl]amino}pyridin-4-yl)methyl]piperazin-1-yl}(cyclopropyl)methanone] showed an IC50 of 72.2 nM. COc1ccc(-c2ccc3nc(Nc4cc(CN5CCN(C(=O)C6CC6)CC5)ccn4)[nH]c3c2)nn1 [Example 47.01, cyclopropyl{4-[(2-{[6-(6-methoxypyridazin-3-yl)-1H-benzimidazol-2-yl]amino}pyridin-4-yl)methyl]piperazin-1-yl}methanone] showed an IC50 of 394 nM. Work on COc1cnnc(-c2ccc3nc(Nc4cc(CN5CCN(C(=O)C6CC6)CC5)ccn4)[nH]c3c2)c1 [Example 47.02, cyclopropyl{4-[(2-{[6-(5-methoxypyridazin-3-yl)-1H-benzimidazol-2-yl]amino}pyridin-4-yl)methyl]piperazin-1-yl}methanone] yielded an IC50 of 504 nM. COc1cncc(-c2ccc3nc(Nc4cc(CN5CCN(C(=O)C6CC6)CC5)ccn4)[nH]c3c2)n1 [Example 48.01, cyclopropyl{4-[(2-{[6-(6-methoxypyrazin-2-yl)-1H-benzimidazol-2-yl]amino}pyridin-4-yl)methyl]piperazin-1-yl}methanone] showed an IC50 of 193 nM.
